# Source: patent US5420027A, “Methods and compositions for the expression of biologically active fusion proteins comprising a eukaryotic cytochrome P450 fused to a reductase in bacteria” (Board of Regents, The University of Texas System, priority 1992, dated 1995)
# Read-outs that look alike come from different tables or passages of the source.
# Assays:
# [1] = target: T1, bovine P45017α (Bos taurus, UniProt P05185, W2A); assay: Substrate-induced difference spectra (substrate binding) in intact E. coli expressing P45017α; details: steroid added until spectrally saturated
# T1 construct: made in house; host or cells: E. coli JM109 harboring pCWmod17 (intact cells)
# T1 sequence (P05185 1-509 W2A): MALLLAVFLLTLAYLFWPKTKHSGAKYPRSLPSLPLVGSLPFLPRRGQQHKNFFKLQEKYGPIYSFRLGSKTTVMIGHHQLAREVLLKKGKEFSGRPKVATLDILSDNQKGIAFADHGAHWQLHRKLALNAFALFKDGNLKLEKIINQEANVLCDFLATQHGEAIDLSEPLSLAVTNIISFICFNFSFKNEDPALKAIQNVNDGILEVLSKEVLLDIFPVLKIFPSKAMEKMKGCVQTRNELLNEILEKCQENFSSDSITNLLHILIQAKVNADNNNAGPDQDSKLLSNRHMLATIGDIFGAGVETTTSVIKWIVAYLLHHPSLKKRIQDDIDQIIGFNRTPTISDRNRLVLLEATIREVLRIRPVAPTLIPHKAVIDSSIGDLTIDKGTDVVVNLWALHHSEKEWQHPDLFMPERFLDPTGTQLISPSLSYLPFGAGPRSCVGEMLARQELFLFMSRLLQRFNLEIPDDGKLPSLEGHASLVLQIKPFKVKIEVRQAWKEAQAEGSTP
# Method: The functional role of the binding of C21 steroids to the expressed P45017α was determined by incubation of transformed E. coli with radiolabeled substrates and HPLC analysis of substrates and products.
# For the studies shown in FIG. 3B, substrate binding spectra were obtained by adding steroid to the indicated final concentration: (preg) pregnenolone 22 μM, (17OH preg) 17α-hydroxypregnenolone 40 μM, (DHEA) dehydroepiandrosterone 46 μM, (AD) androstenedione 46 μM. A volume of washed cells containing 1.6 nmoles P45017α was diluted to 6 ml with MOPS buffer and divided into the sample and reference cuvettes of an Aminco DW-2A spectrophotometer. A baseline tracing was recorded from 350 to 510 nm (representative shown). Steroid was added in 10 μl aliquots (1-2mg/ml in ethanol) to the sample with an equal volume of ethanol added to the reference. Additional aliquots of steroids and ethanol were added until the bacterially expressed P45017α was spectrally saturated (spectra shown).
# [2] = target: T2, bovine P450 17A1- rat liver reductase fusion protein (UniProt P00388+P05185, W2A); assay: Steroid metabolism by bovine P450 17A1-rat liver reductase fusion protein with NADPH
# T2 sequence (P05185+P00388 with tags, fused parts or gaps P05185:W2A): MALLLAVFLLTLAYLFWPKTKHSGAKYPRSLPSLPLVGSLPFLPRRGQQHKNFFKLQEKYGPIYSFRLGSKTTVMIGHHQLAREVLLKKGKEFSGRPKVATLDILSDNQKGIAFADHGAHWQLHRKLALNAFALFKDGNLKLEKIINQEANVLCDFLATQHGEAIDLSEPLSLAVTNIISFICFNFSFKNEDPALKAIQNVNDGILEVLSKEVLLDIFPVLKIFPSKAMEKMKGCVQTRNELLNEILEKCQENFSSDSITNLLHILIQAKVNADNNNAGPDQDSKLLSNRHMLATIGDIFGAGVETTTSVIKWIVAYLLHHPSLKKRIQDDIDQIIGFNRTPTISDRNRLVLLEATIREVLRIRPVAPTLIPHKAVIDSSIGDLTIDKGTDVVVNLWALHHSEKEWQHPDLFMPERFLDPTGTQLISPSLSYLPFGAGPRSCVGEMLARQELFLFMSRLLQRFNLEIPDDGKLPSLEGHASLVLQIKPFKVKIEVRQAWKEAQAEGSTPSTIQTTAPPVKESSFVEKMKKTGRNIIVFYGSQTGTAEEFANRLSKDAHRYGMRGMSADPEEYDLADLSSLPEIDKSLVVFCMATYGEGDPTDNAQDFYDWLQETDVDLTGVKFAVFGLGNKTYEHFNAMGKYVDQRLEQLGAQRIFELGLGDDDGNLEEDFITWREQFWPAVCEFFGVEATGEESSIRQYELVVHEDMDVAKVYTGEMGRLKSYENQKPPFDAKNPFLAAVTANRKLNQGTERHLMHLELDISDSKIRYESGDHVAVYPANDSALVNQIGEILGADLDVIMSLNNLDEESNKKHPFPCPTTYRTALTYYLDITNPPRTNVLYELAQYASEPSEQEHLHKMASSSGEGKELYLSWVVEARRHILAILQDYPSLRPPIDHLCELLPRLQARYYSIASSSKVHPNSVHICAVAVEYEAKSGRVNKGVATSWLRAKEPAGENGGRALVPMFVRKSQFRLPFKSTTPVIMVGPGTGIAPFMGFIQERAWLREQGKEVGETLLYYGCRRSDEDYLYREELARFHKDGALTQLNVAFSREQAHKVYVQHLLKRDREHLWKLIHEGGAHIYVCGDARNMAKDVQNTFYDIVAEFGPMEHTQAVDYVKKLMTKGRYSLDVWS
# Method: FIG. 11. […] Analysis was performed with reverse phase HPLC chromatography on a C18 column.
# In the present example, purification of the fusion protein was achieved by chromatography on DE-52 and 2', 5' ADP-sepharose.
# [3] = target: T3, bovine 17α-hydroxylase (P45017α) (Bos taurus, UniProt P05185, W2A); details: for conversion by expressed P45017α (17α-hydroxylation / 17,20-lyase): intact E. coli, 2.5 μM steroid, 28° C., up to 8 hours, no added reductase
# T3 sequence (P05185 1-509 W2A): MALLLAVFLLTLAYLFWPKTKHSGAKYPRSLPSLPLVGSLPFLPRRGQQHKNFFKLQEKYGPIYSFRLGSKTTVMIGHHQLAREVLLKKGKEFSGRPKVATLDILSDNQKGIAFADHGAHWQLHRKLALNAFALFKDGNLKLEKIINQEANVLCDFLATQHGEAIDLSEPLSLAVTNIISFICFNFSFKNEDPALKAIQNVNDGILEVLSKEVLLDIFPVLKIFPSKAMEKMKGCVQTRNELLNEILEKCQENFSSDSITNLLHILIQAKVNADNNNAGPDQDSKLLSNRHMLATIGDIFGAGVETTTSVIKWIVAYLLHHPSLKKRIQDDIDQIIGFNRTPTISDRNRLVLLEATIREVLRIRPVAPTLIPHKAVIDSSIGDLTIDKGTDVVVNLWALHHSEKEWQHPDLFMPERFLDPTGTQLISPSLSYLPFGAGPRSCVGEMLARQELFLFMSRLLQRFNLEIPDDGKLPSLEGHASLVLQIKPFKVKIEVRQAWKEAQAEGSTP
# Method: The initial substrates employed were pregnenolone, 17α-hydroxypregnenolone, and progesterone. For these studies, E. coli were grown and induced as described for the FIG. 2 studies. Cells were pelleted, washed once in MOPS buffer and resuspended in the same buffer at 1/20 volume of the original bacterial culture. A volume of concentrated cells corresponding to 3.7-4.2 nmoles P45017α was diluted to 5ml MOPS buffer containing 10 mM glucose, 2.5 μM steroid and 100,000 cpm/ml of ^3 H-labeled radioactive steroid. Samples were incubated at. 28° C. with gentle shaking. Aliquots (0.5 ml) were removed at 0, 0.5, 1, 2, 4, 6 and 8 hours after steroid addition. Following extraction of cells and culture media steroids were analyzed by HPLC as previously described (Estabrook et al., 1988).
# [4] = target: T4, human liver P450 1A2 (Homo sapiens, UniProt P05177, A19F/I20L/S18V); assay: Ethoxyresorufin and ethoxycoumarin O-deethylase activities of P450 1A2-containing E. coli membranes (fluorometric); format: biochemical; details: O-deethylation; membranes plus purified reductase, 37° C.
# T4 construct: made in house; host or cells: E. coli DH5α membranes, pCWori+ plasmid
# T4 sequence (P05177 with tags, fused parts or gaps S18V/A19F/I20L limits assumed): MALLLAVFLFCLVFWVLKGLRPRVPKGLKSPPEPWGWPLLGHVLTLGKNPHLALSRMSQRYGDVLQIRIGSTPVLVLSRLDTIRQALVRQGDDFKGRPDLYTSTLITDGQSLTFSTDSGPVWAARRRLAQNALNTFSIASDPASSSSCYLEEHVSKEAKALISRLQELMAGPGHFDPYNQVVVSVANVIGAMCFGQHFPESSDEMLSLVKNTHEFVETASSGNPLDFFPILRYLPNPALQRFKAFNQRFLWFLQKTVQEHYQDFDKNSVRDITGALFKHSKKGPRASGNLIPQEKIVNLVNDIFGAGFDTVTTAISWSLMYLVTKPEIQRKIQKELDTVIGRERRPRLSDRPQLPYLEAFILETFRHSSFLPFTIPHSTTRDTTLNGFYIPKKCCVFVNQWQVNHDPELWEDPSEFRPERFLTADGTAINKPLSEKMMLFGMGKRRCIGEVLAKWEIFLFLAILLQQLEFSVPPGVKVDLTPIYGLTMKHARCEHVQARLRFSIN
# Method: (§1) Membranes from P450 1A2-expressing E. coli were incubated with pure NADPH-cytochrome P450 reductase and the activity for the P450 directed oxidation of a number of substrates was determined.
# (§2) Ethoxyresorufin and ethoxycoumarin O-deethylase activities were assayed fluorometrically using an Aminco-Bowman fluorometer as previously described (Burke & Mayer, 1974; Ullrich & Weber, 1972). […] Substrates were added as DMSO solutions in less than 0.1% of the final volume. The reactions were initiated by the addition of 10 μl of 50 mM NADPH.
# [5] = substrate: CCOc1ccc2nc3ccc(=O)cc-3oc2c1; assay: as above; format: biochemical, human; details: other: O-deethylation, membranes plus purified reductase, 37° C., pH 7.4
# Method: as §1, §2
# [6] = substrate: C[C@]12CC[C@@H]3c4ccc(O)cc4CC[C@H]3[C@@H]1CC[C@@H]2O; assay: cells, lysate or membranes named; details: other: estradiol to 2-OH metabolite, membranes plus purified reductase, 37° C., pH 7.5
# [7] = membrane-bound fused enzyme (FIG. 10)
# [8] = purified fusion protein incubated with NADPH (FIGS. 11, 12)
molecule,measurement,setting,value
C[C@]12CCC(=O)C=C1CC[C@@H]1[C@@H]2CC[C@]2(C)C(=O)CC[C@@H]12 [androstenedione],binding to expressed P45017α (substrate-induced difference spectrum),[1],no binding
CC(=O)[C@H]1CC[C@H]2[C@@H]3CC=C4C[C@@H](O)CC[C@]4(C)[C@H]3CC[C@]12C [pregnenolone],metabolism by membrane-bound fusion protein,[2],rather slow rate
same,metabolism by purified fusion protein,[2],remarkably high enzymatic activity
same,binding to expressed P45017α (substrate-induced difference spectrum),[1],binding of substrates was also observed
same,"conversion by expressed P45017α (17α-hydroxylation / 17,20-lyase)",[3],readily converted to their 17α-hydroxylated products
"CC(=O)[C@@]1(O)CC[C@H]2[C@@H]3CC=C4C[C@@H](O)CC[C@]4(C)[C@H]3CC[C@@]21C [17α-hydroxyregnenolone, 17α-hydroxypregnenolone]",metabolism by membrane-bound fusion protein,[2]; [7],lost the ability to catalyze the lyase reaction
same,metabolism by purified fusion protein,[2]; [8],DHEA is formed in a time dependent manner
same,binding to expressed P45017α (substrate-induced difference spectrum),[1],binding of substrates was also observed
CCOc1ccc2ccc(=O)oc2c1 [Ethoxycoumarin],Vmax,[4],0.3644 mol/min/mol P450
CC(=O)N1CCN(c2ccc(OCC3COC(Cn4ccnc4)(c4ccc(Cl)cc4Cl)O3)cc2)CC1 (stereo not shown) [ketoconazole],inhibition of 17α-hydroxylase activity,[3]; intact E. coli expressing bovine P45017α,inhibit 17α-hydroxylase activity
C[C@]12CC[C@H](O)CC1=CC[C@@H]1[C@@H]2CC[C@]2(C)C(=O)CC[C@@H]12 [dehydroepiandrosterone],binding to expressed P45017α (substrate-induced difference spectrum),[1],much less binding
CC(=O)[C@H]1CC[C@H]2[C@@H]3CCC4=CC(=O)CC[C@]4(C)[C@H]3CC[C@]12C [progesterone],metabolism by membrane-bound fusion protein,[2]; [7],rather slow rate
same,metabolism by purified fusion protein,[2]; [8],remarkably high enzymatic activity
same,binding to expressed P45017α (substrate-induced difference spectrum),[1],binding of substrates was also observed
same,"conversion by expressed P45017α (17α-hydroxylation / 17,20-lyase)",[3],readily converted to their 17α-hydroxylated products
"human liver P450 1A2 (Homo sapiens; A19F/I20L/S18V) (protein, made in house; host or cells: E. coli DH5α membranes, pCWori+ plasmid) MALLLAVFLFCLVFWVLKGLRPRVPKGLKSPPEPWGWPLLGHVLTLGKNPHLALSRMSQRYGDVLQIRIGSTPVLVLSRLDTIRQALVRQGDDFKGRPDLYTSTLITDGQSLTFSTDSGPVWAARRRLAQNALNTFSIASDPASSSSCYLEEHVSKEAKALISRLQELMAGPGHFDPYNQVVVSVANVIGAMCFGQHFPESSDEMLSLVKNTHEFVETASSGNPLDFFPILRYLPNPALQRFKAFNQRFLWFLQKTVQEHYQDFDKNSVRDITGALFKHSKKGPRASGNLIPQEKIVNLVNDIFGAGFDTVTTAISWSLMYLVTKPEIQRKIQKELDTVIGRERRPRLSDRPQLPYLEAFILETFRHSSFLPFTIPHSTTRDTTLNGFYIPKKCCVFVNQWQVNHDPELWEDPSEFRPERFLTADGTAINKPLSEKMMLFGMGKRRCIGEVLAKWEIFLFLAILLQQLEFSVPPGVKVDLTPIYGLTMKHARCEHVQARLRFSIN",Km,[5],0.01 µM
same,kcat,[5],2.5 mol/min/mol P450
same,Km,[6],13 µM
same,kcat,[6],1.5 mol/min/mol P450
